# Test system: 192522-019-R-J2-PDC complex tumor spheroid viability
# Assay: Anticancer human tumor 192522-019-R-J2-PDC patient-derived colon adenocarcinoma cell line growth inhibition [POLQ]
# Conditions: for IC50: curve of first compound; for viability, T/C: stronger effect = lower value
# Procedure, shortened: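 Complex spheroid viability model combining PDC tumour cells with endothelial (HUVEC) and MSC stromal cells. Novobiocin, ART-558 or RP6685 were tested singly and in combination with standard and investigational anticancer drugs. Each was titrated in half-log steps from near clinical Cmax, or from 10 microM where Cmax was unknown.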
# [1] = second compound 0.0316 µM, first compound 0.0316 µM
# [2] = second compound 0.0316 µM, first compound 0.1 µM
# [3] = second compound 0.0316 µM, first compound 0.316 µM
# [4] = second compound 0.0316 µM, first compound 1 µM
# [5] = second compound 0.0316 µM, first compound 3.16 µM
# [6] = second compound 0.0316 µM, first compound 10 µM
# [7] = second compound 0.1 µM, first compound 0.0316 µM
# [8] = second compound 0.1 µM, first compound 0.1 µM
# [9] = second compound 0.1 µM, first compound 0.316 µM
# [10] = second compound 0.1 µM, first compound 1 µM
# [11] = second compound 0.1 µM, first compound 3.16 µM
# [12] = second compound 0.1 µM, first compound 10 µM
# [13] = second compound 0.316 µM, first compound 0.0316 µM
# [14] = second compound 0.316 µM, first compound 0.1 µM
# [15] = second compound 0.316 µM, first compound 0.316 µM
# [16] = second compound 0.316 µM, first compound 1 µM
# [17] = second compound 0.316 µM, first compound 3.16 µM
# [18] = second compound 0.316 µM, first compound 10 µM
# [19] = second compound 1 µM, first compound 0.0316 µM
# [20] = second compound 1 µM, first compound 0.1 µM
# [21] = second compound 1 µM, first compound 0.316 µM
# [22] = second compound 1 µM, first compound 1 µM
# [23] = second compound 1 µM, first compound 3.16 µM
# [24] = second compound 1 µM, first compound 10 µM
# [25] = second compound 3.16 µM, first compound 0.0316 µM
# [26] = second compound 3.16 µM, first compound 0.1 µM
# [27] = second compound 3.16 µM, first compound 0.316 µM
# [28] = second compound 3.16 µM, first compound 1 µM
# [29] = second compound 3.16 µM, first compound 3.16 µM
# [30] = second compound 3.16 µM, first compound 10 µM
# [31] = second compound 10 µM, first compound 0.0316 µM
# [32] = second compound 10 µM, first compound 0.1 µM
# [33] = second compound 10 µM, first compound 0.316 µM
# [34] = second compound 10 µM, first compound 1 µM
# [35] = second compound 10 µM, first compound 3.16 µM
# [36] = second compound 10 µM, first compound 10 µM
# 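Further: spheroids exposed to drugs for seven days before reading.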
# 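Wherever viability, T/C is given: 100% = DMSO vehicle control viability in luminescence.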
smiles,measurement,setting,value
CC(C)n1c(=O)n(C)c2cnc3cc(F)c(-c4ccc(OCCCN5CCCCC5)nc4)cc3c21 + Nc1ccc(C#CCN(C(=O)Cc2ncc(C(F)(F)F)cc2C(F)(F)F)c2ccc(F)cc2)nn1,IC50,second compound 0.0316 µM,> 10 µM
same,IC50,second compound 0.1 µM,> 10 µM
same,IC50,second compound 0.316 µM,> 10 µM
same,IC50,second compound 1 µM,> 10 µM
same,IC50,second compound 3.16 µM,> 10 µM
same,IC50,second compound 10 µM,> 10 µM
same,"viability, T/C",[1],104%
same,"viability, T/C",[2],97.6%
same,"viability, T/C",[3],110%
same,"viability, T/C",[4],118%
same,"viability, T/C",[5],124%
same,"viability, T/C",[6],101%
same,"viability, T/C",[7],100%
same,"viability, T/C",[8],112%
same,"viability, T/C",[9],119%
same,"viability, T/C",[10],134%
same,"viability, T/C",[11],122%
same,"viability, T/C",[12],94%
same,"viability, T/C",[13],113%
same,"viability, T/C",[14],105%
same,"viability, T/C",[15],110%
same,"viability, T/C",[16],118%
same,"viability, T/C",[17],123%
same,"viability, T/C",[18],111%
same,"viability, T/C",[19],104%
same,"viability, T/C",[20],118%
same,"viability, T/C",[21],122%
same,"viability, T/C",[22],138%
same,"viability, T/C",[23],137%
same,"viability, T/C",[24],111%
same,"viability, T/C",[25],116%
same,"viability, T/C",[26],104%
same,"viability, T/C",[27],116%
same,"viability, T/C",[28],127%
same,"viability, T/C",[29],120%
same,"viability, T/C",[30],112%
same,"viability, T/C",[31],105%
same,"viability, T/C",[32],104%
same,"viability, T/C",[33],117%
same,"viability, T/C",[34],127%
same,"viability, T/C",[35],127%
same,"viability, T/C",[36],114%
Nc1ccn(C2OC(CO)C(O)C2(F)F)c(=O)n1 (stereo not drawn) + Cc1cccc(N(C)C(=O)C2C(O)CCN2c2nc(C)cc(C(F)(F)F)c2C#N)c1,IC50,second compound 0.0316 µM,> 10 µM
same,IC50,second compound 0.1 µM,> 10 µM
same,IC50,second compound 0.316 µM,> 10 µM
same,IC50,second compound 1 µM,> 10 µM
same,IC50,second compound 3.16 µM,> 10 µM
same,IC50,second compound 10 µM,> 10 µM
same,"viability, T/C",[1],95.9%
same,"viability, T/C",[2],81.6%
same,"viability, T/C",[3],81.8%
same,"viability, T/C",[4],76.2%
same,"viability, T/C",[5],70.3%
same,"viability, T/C",[6],57.2%
same,"viability, T/C",[7],95.9%
same,"viability, T/C",[8],95.7%
same,"viability, T/C",[9],80.6%
same,"viability, T/C",[10],76.5%
same,"viability, T/C",[11],66.6%
same,"viability, T/C",[12],55.5%
same,"viability, T/C",[13],108%
same,"viability, T/C",[14],95.3%
same,"viability, T/C",[15],83.2%
same,"viability, T/C",[16],76.3%
same,"viability, T/C",[17],65.8%
same,"viability, T/C",[18],57.6%
same,"viability, T/C",[19],104%
same,"viability, T/C",[20],90%
same,"viability, T/C",[21],80.6%
same,"viability, T/C",[22],79.9%
same,"viability, T/C",[23],72.3%
same,"viability, T/C",[24],56.5%
same,"viability, T/C",[25],105%
same,"viability, T/C",[26],98.6%
same,"viability, T/C",[27],88.6%
same,"viability, T/C",[28],74%
same,"viability, T/C",[29],77%
same,"viability, T/C",[30],59.7%
same,"viability, T/C",[31],108%
same,"viability, T/C",[32],83.4%
same,"viability, T/C",[33],80.5%
same,"viability, T/C",[34],74.3%
same,"viability, T/C",[35],76.5%
same,"viability, T/C",[36],62.3%
CCCS(=O)(=O)Nc1ccc(F)c(C(=O)c2c[nH]c3ncc(-c4ccc(Cl)cc4)cc23)c1F + Cc1cccc(N(C)C(=O)C2C(O)CCN2c2nc(C)cc(C(F)(F)F)c2C#N)c1,IC50,second compound 0.0316 µM,> 10 µM
same,IC50,second compound 0.1 µM,> 10 µM
same,IC50,second compound 0.316 µM,> 10 µM
same,IC50,second compound 1 µM,> 10 µM
same,IC50,second compound 3.16 µM,> 10 µM
same,IC50,second compound 10 µM,> 10 µM
same,"viability, T/C",[1],101%
same,"viability, T/C",[2],110%
same,"viability, T/C",[3],96.8%
same,"viability, T/C",[4],119%
same,"viability, T/C",[5],109%
same,"viability, T/C",[6],77.7%
same,"viability, T/C",[7],105%
same,"viability, T/C",[8],102%
same,"viability, T/C",[9],106%
same,"viability, T/C",[10],114%
same,"viability, T/C",[11],101%
same,"viability, T/C",[12],78.7%
same,"viability, T/C",[13],106%
same,"viability, T/C",[14],101%
same,"viability, T/C",[15],97.3%
same,"viability, T/C",[16],97%
same,"viability, T/C",[17],105%
same,"viability, T/C",[18],62.8%
same,"viability, T/C",[19],113%
same,"viability, T/C",[20],118%
same,"viability, T/C",[21],103%
same,"viability, T/C",[22],102%
same,"viability, T/C",[23],120%
same,"viability, T/C",[24],61.5%
same,"viability, T/C",[25],101%
same,"viability, T/C",[26],106%
same,"viability, T/C",[27],105%
same,"viability, T/C",[28],103%
same,"viability, T/C",[29],102%
same,"viability, T/C",[30],73.2%
same,"viability, T/C",[31],110%
same,"viability, T/C",[32],102%
same,"viability, T/C",[33],98.3%
same,"viability, T/C",[34],106%
same,"viability, T/C",[35],124%
same,"viability, T/C",[36],66.2%
COc1ccc([C@@H](O)c2cc(-c3ncnc4cc(N5CCOCC5)ccc34)c(F)cc2Cl)nn1 + Cc1cccc(N(C)C(=O)C2C(O)CCN2c2nc(C)cc(C(F)(F)F)c2C#N)c1,IC50,second compound 0.0316 µM,> 10 µM
same,IC50,second compound 0.1 µM,> 10 µM
same,IC50,second compound 0.316 µM,> 10 µM
same,IC50,second compound 1 µM,> 10 µM
same,IC50,second compound 3.16 µM,> 10 µM
same,IC50,second compound 10 µM,> 10 µM
same,"viability, T/C",[1],102%
same,"viability, T/C",[2],86%
same,"viability, T/C",[3],103%
same,"viability, T/C",[4],83.1%
same,"viability, T/C",[5],85.9%
same,"viability, T/C",[6],51.8%
same,"viability, T/C",[7],100%
same,"viability, T/C",[8],87.5%
same,"viability, T/C",[9],90.1%
same,"viability, T/C",[10],90.8%
same,"viability, T/C",[11],78.9%
same,"viability, T/C",[12],61.8%
same,"viability, T/C",[13],104%
same,"viability, T/C",[14],95.7%
same,"viability, T/C",[15],102%
same,"viability, T/C",[16],91.3%
same,"viability, T/C",[17],84.9%
same,"viability, T/C",[18],65%
same,"viability, T/C",[19],98.9%
same,"viability, T/C",[20],94.7%
same,"viability, T/C",[21],93.7%
same,"viability, T/C",[22],97.4%
same,"viability, T/C",[23],89.9%
same,"viability, T/C",[24],62.4%
same,"viability, T/C",[25],101%
same,"viability, T/C",[26],100%
same,"viability, T/C",[27],105%
same,"viability, T/C",[28],94.8%
same,"viability, T/C",[29],95.1%
same,"viability, T/C",[30],64.6%
same,"viability, T/C",[31],106%
same,"viability, T/C",[32],96.1%
same,"viability, T/C",[33],104%
same,"viability, T/C",[34],99.6%
same,"viability, T/C",[35],89%
same,"viability, T/C",[36],52.6%

# Reference: PubChem BioAssay AID1963850 (Molecular Pharmacology Branch, DTP, NCI, 2024)
